Results taken from patent US8895571B2, “Isoindolinone and pyrrolopyridinone derivatives as Akt inhibitors” (Incyte Corporation, priority 2011, dated 2014).

How the values were obtained:
[1] = target: T1, Full length Akt3 (Homo sapiens, UniProt Q9Y243); assay: In vitro Akt kinase enzymatic assay (HTRF), Akt3; assay type: biochemical; details: 0.6 nM Akt3, substrate solution with 5 mM ATP, 25° C. 1 hr
T1 construct: Full length Akt1 (cat #P2999), Akt2 (cat #PV3184), Akt3 (cat #PV3185); purchased PerkinElmer PV3185
Summary of the method: (§1)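 Full-length enzyme (0.4 nM Akt1 or 0.6 nM Akt2/Akt3 in the enzyme solution) was combined with a substrate solution of 0.1 μM ULight-Crosstide plus 5 mM ATP in pH 7.8 HEPES/MgCl2/DTT/Tween20 buffer and reacted 1 hr at 25° C. The EDTA stop contained Eu anti-phospho-Crosstide; IC50 was fitted from 11-point HTRF inhibition curves.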

[2] = target: T2, Full length Akt2 (Homo sapiens, UniProt P31751); assay: In vitro Akt kinase enzymatic assay (HTRF), Akt2; assay type: biochemical; details: 0.6 nM Akt2, substrate solution with 5 mM ATP, 25° C. 1 hr
T2 construct: Full length Akt1 (cat #P2999), Akt2 (cat #PV3184); purchased PerkinElmer PV3184
Summary of the method: as §1

[3] = target: T3, Full length Akt1 (Homo sapiens, UniProt P31749); assay: In vitro Akt kinase enzymatic assay (HTRF), Akt1; assay type: biochemical; details: 0.4 nM Akt1, substrate solution with 5 mM ATP, 25° C. 1 hr
T3 construct: Full length Akt1 (cat #P2999); purchased PerkinElmer P2999
Summary of the method: as §1

[4] = target: T4, Full length PKA (Homo sapiens, UniProt P17612); assay: PKA in vitro enzymatic assay (HTRF); assay type: biochemical; details: 0.035 nM enzyme solution, substrate solution with 5 mM ATP, 25° C. 1 hr
T4 construct: Full length PKA (cat #P2912); purchased Invitrogen P2912
Summary of the method: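 Reaction buffer was 50 mM HEPES pH 7.8, 10 mM MgCl2, 5 mM DTT and 0.005% Tween20. Enzyme solution was 0.035 nM, and substrate solution was 0.1 μM fluorescein-CREBtide with 5 mM ATP. After 1 h at 25°C, EDTA plus Tb anti-pS133 antibody was added, TR-FRET was read, and IC50 was fitted from 11-point, 3-fold % inhibition curves.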

[5] = system: LNCaP cells (human prostate tumor cell line); assay: Akt LNCaP proliferation assay (MTS); assay type: cell-based; details: 48 hours
Procedure: LNCaP cells (human prostate tumor cell line) were plated in 96 well plates (COSTAR, Corning, N.Y.) in 50 μL at 10,000 cells/well in RPMI (Media Tech, Manassas, Va.), 2% fetal bovine serum (Hyclone/Thermo, Logan, Utah) and incubated overnight at 37° C., 5% CO2. […] of compound solution were added at final concentrations of 1000 nM to 0.5 nM in 3 fold dilutions for IC50 determination and plates further incubated for 48 hours. 100 μL of Cell Titer 96® Aqueous reagent, from an MTS colorimetric method for determining the number of viable cells in proliferation (Cell titer 96, Promega, Madison, Wis.) was added for 2 hours at 37° C., 5% CO2. Each plate was mixed well and read on a SpectroMax M5 automated plate reader (Molecular Devices, Sunnyvale Calif.). The ability of the compound to inhibit proliferation was reported as the inhibitor concentration required for 50% inhibition (IC50 values) of total cell proliferation. See Table 8 for data related to compounds of the examples.

[6] = 2% fetal bovine serum, class symbols
[7] = given as a bound, final concentrations 1000 nM to 0.5 nM

T3 sequence (P31749 whole entry): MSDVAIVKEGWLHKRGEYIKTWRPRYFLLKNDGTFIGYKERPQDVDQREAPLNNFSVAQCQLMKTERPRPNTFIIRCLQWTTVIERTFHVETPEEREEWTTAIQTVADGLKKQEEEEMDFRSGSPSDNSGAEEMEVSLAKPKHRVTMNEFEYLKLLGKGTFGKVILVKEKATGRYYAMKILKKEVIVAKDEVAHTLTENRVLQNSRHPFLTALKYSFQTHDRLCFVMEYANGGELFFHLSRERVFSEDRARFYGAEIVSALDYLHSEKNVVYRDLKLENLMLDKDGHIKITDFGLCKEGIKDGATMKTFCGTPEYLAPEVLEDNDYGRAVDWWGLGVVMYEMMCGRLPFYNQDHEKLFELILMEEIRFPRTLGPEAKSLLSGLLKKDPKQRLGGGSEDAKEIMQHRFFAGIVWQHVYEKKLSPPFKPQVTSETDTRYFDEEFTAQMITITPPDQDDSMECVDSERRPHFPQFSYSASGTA
T2 sequence (P31751 whole entry): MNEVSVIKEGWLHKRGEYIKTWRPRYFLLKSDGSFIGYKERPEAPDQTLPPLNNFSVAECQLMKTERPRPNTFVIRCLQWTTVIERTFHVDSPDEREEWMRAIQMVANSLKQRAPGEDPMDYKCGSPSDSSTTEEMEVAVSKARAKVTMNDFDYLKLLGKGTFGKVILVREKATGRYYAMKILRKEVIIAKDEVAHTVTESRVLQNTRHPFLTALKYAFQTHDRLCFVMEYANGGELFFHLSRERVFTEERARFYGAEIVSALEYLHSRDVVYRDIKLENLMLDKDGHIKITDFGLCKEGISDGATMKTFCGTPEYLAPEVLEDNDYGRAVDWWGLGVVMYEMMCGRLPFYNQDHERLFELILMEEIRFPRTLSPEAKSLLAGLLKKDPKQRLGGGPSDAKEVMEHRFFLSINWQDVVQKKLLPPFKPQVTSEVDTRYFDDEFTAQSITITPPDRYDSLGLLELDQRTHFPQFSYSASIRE
T1 sequence (Q9Y243 whole entry): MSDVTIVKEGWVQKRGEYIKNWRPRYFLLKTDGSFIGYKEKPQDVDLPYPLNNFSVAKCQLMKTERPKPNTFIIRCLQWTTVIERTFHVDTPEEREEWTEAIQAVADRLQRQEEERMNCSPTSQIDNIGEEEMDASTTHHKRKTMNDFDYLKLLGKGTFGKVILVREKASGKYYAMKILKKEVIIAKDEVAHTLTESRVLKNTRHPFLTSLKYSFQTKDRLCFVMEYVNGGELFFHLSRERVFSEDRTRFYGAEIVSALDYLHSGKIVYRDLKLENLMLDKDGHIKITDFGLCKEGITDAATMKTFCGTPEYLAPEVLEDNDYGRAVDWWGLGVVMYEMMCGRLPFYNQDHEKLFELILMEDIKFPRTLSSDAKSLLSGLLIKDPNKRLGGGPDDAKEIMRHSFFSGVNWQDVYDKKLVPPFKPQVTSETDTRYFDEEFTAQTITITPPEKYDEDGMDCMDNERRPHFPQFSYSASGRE

SMILES | IC50 [1] [nM] | IC50 [2] [nM] | IC50 [3] [nM] | IC50 [4] [nM] | IC50 [5, 6] [nM] | IC50 [5, 7] [nM]
CSCc1cnn(C)c1-c1ccc2c(c1)CN([C@H](CN)Cc1cccc(F)c1)C2=O [Example 10] | 500 to 5000 | 500 to 5000 | < 500 | > 5000 | 500 to 5000 | –
Cn1nccc1-c1ccc2c(c1)CN([C@H](CN)Cc1csc3ccccc13)C2=O [Example 76, 2-[(1S)-2-amino-1-(1-benzothien-3-ylmethyl)ethyl]-5-(1-methyl-1H-pyrazol-5-yl)isoindolin-1-one] | < 500 | < 500 | < 500 | > 5000 | < 500 | –
C#Cc1cccc(C[C@@H](CN)N2Cc3cc(-c4ccnn4C)ccc3C2=O)c1 [Example 88, 2-[(1S)-2-amino-1-(3-ethynylbenzyl)ethyl]-5-(1-methyl-1H-pyrazol-5-yl)isoindolin-1-one] | < 500 | < 500 | < 500 | 500 to 5000 | < 500 | –
Cn1ncc(Cl)c1-c1cc2c(cn1)C(=O)N([C@H](CN)Cc1cc(F)cc(F)c1)C2 [Example 101, 2-[(1S)-2-amino-1-(3,5-difluorobenzyl)ethyl]-6-(4-chloro-1-methyl-1H-pyrazol-5-yl)-1,2-dihydro-3H-pyrrolo[3,4-c]pyridin-3-one] | < 500 | < 500 | < 500 | 500 to 5000 | < 500 | –
CC(C)OCc1cnn(C)c1-c1ccc2c(c1)CN([C@H](CN)Cc1cc(F)cc(F)c1)C2=O [Example 45, 2-[(1S)-2-amino-1-(3,5-difluorobenzyl)ethyl]-5-[4-(2-propoxymethyl)-1-methyl-1H-pyrazol-5-yl]isoindolin-1-one] | < 500 | < 500 | < 500 | 500 to 5000 | < 500 | –
Cn1nccc1-c1ccc2c(c1)CN([C@H](CN)Cc1cccc(-c3ccncc3)c1)C2=O [Example 85, 2-[(1S)-2-amino-1-(3-pyridin-4-ylbenzyl)ethyl]-5-(1-methyl-1H-pyrazol-5-yl)isoindolin-1-one] | > 5000 | > 5000 | > 5000 | > 5000 | – | > 1000
Cn1nccc1-c1ccc2c(c1)CN([C@H](CN)Cc1cccs1)C2=O [Example 80, 2-[(1S)-2-amino-1-(2-thienylmethyl)ethyl]-5-(1-methyl-1H-pyrazol-5-yl)isoindolin-1-one] | < 500 | < 500 | < 500 | 500 to 5000 | < 500 | –
CNC(=O)c1ccc(-c2cnn(C)c2-c2ccc3c(c2)CN([C@H](CN)Cc2cccc(F)c2)C3=O)cn1 [Example 29, 5-(5-{2-[(1S)-2-amino-1-(3-fluorobenzyl)ethyl]-1-oxo-2,3-dihydro-1H-isoindol-5-yl}-1-methyl-1H-pyrazol-4-yl)-N-methylpyridine-2-carboxamide] | > 5000 | > 5000 | 500 to 5000 | > 5000 | – | –
Cn1nccc1-c1cnn(C)c1-c1ccc2c(c1)CN([C@H](CN)Cc1cccc(F)c1)C2=O [Example 17, 2-[(1S)-2-amino-1-(3-fluorobenzyl)ethyl]-5-(1′,2-dimethyl-1′H,2H-3,4′-bipyrazol-5′-yl)isoindolin-1-one] | > 5000 | > 5000 | > 5000 | > 5000 | – | –
Cn1nccc1-c1ccc2c(n1)CN([C@H](CN)Cc1cccc(F)c1)C2=O [Example 110, 6-[(1S)-2-amino-1-(3-fluorobenzyl)ethyl]-2-(1-methyl-1H-pyrazol-5-yl)-6,7-dihydro-5H-pyrrolo[3,4-b]pyridin-5-one] | 500 to 5000 | 500 to 5000 | < 500 | > 5000 | – | –
Cn1ncc(-c2cccs2)c1-c1ccc2c(c1)CN([C@H](CN)Cc1cccc(F)c1)C2=O [Example 15, 2-[(1S)-2-amino-1-(3-fluorobenzyl)ethyl]-5-[1-methyl-4-(2-thienyl)-1H-pyrazol-5-yl]isoindolin-1-one] | < 500 | > 5000 | 500 to 5000 | > 5000 | – | –

Continued, values first:

IC50 [1] [nM] | IC50 [2] [nM] | IC50 [3] [nM] | IC50 [4] [nM] | IC50 [5, 6] [nM] | IC50 [5, 7] [nM] | SMILES
< 500 | < 500 | < 500 | 500 to 5000 | < 500 | – | Cn1ncc(Cl)c1-c1cc2c(cn1)C(=O)N([C@H](CN)CC1CCCCC1)C2 [Example 135, 2-[(1S)-2-amino-1-(cyclohexylmethyl)ethyl]-6-(4-chloro-1-methyl-1H-pyrazol-5-yl)-1,2-dihydro-3H-pyrrolo[3,4-c]pyridin-3-one]
> 5000 | > 5000 | 500 to 5000 | > 5000 | – | > 1000 | Cn1ncc(Cl)c1-c1ccc2c(c1)CN([C@H](CN)Cc1cccc(-c3cncnc3)c1)C2=O [Example 74, 2-[(1S)-2-amino-1-(3-pyrimidin-5-ylbenzyl)ethyl]-5-(4-chloro-1-methyl-1H-pyrazol-5-yl)isoindolin-1-one]
< 500 | < 500 | < 500 | 500 to 5000 | < 500 | – | Cn1ncc(Br)c1-c1ccc2c(c1)CN([C@H](CN)Cc1cccc(F)c1)C2=O [Example 12, 2-[(1S)-2-amino-1-(3-fluorobenzyl)ethyl]-5-(4-bromo-1-methyl-1H-pyrazol-5-yl)isoindolin-1-one]
< 500 | < 500 | < 500 | 500 to 5000 | < 500 | – | Cn1ncc(Br)c1-c1ccc2c(c1)CN([C@H](CN)Cc1cc(F)cc(F)c1)C2=O [Example 52, 2-[(1S)-2-amino-1-(3,5-difluorobenzyl)ethyl]-5-(4-bromo-1-methyl-1H-pyrazol-5-yl)isoindolin-1-one]
< 500 | < 500 | < 500 | > 5000 | < 500 | – | Cn1ncc(C#N)c1-c1ccc2c(c1)CN([C@H](CN)Cc1cccc(F)c1)C2=O [Example 13, 2-[(1S)-2-amino-1-(3-fluorobenzyl)ethyl]-5-(4-cyano-1-methyl-1H-pyrazol-5-yl)isoindolin-1-one]
< 500 | < 500 | < 500 | 500 to 5000 | < 500 | – | Cn1ncc(C#N)c1-c1ccc2c(c1)CN([C@H](CN)Cc1cc(F)cc(F)c1)C2=O [Example 53, 2-[(1S)-2-amino-1-(3,5-difluorobenzyl)ethyl]-5-(4-cyano-1-methyl-1H-pyrazol-5-yl)isoindolin-1-one]
< 500 | < 500 | < 500 | 500 to 5000 | < 500 | – | Cn1ncc(COCC2CC2)c1-c1ccc2c(c1)CN([C@H](CN)Cc1cc(F)cc(F)c1)C2=O [Example 48, 2-[(1S)-2-amino-1-(3,5-difluorobenzyl)ethyl]-5-[4-(cyclopropylmethoxymethyl)-1-methyl-1H-pyrazol-5-yl]isoindolin-1-one]
500 to 5000 | 500 to 5000 | < 500 | 500 to 5000 | > 5000 | – | Cn1ncc(Cl)c1-c1ccc2c(c1)CN([C@H](CN)Cc1cscn1)C2=O [Example 69, 2-[(1S)-2-amino-1-(1,3-thiazol-4-ylmethyl)ethyl]-5-(4-chloro-1-methyl-1H-pyrazol-5-yl)isoindolin-1-one]
< 500 | < 500 | < 500 | > 5000 | < 500 | – | Cn1ncc(Cl)c1-c1ccc2c(c1)CN([C@H](CN)Cc1ccccc1F)C2=O (stereo in doubt) [Example 60, 2-[2-amino-1-(2-fluorobenzyl)ethyl]-5-(4-chloro-1-methyl-1H-pyrazol-5-yl)isoindolin-1-one]
< 500 | < 500 | < 500 | 500 to 5000 | < 500 | – | Cn1ncc(Cl)c1-c1ccc2c(c1)CN([C@H](CN)CC1CCCCC1)C2=O [Example 132, 2-[(1S)-2-amino-1-(cyclohexylmethyl)ethyl]-5-(4-chloro-1-methyl-1H-pyrazol-5-yl)isoindolin-1-one]
